The text below walks through data of patent US8975286B2, “Ether benzotriazole derivatives” (Merck Sharp & Dohme Corp., priority 2009, dated 2015).

The structures appear in SMILES notation.

Broadly, the EC50 is the concentration needed to bring the measured effect to its halfway point.

T1 sequence (Q14416 19-872): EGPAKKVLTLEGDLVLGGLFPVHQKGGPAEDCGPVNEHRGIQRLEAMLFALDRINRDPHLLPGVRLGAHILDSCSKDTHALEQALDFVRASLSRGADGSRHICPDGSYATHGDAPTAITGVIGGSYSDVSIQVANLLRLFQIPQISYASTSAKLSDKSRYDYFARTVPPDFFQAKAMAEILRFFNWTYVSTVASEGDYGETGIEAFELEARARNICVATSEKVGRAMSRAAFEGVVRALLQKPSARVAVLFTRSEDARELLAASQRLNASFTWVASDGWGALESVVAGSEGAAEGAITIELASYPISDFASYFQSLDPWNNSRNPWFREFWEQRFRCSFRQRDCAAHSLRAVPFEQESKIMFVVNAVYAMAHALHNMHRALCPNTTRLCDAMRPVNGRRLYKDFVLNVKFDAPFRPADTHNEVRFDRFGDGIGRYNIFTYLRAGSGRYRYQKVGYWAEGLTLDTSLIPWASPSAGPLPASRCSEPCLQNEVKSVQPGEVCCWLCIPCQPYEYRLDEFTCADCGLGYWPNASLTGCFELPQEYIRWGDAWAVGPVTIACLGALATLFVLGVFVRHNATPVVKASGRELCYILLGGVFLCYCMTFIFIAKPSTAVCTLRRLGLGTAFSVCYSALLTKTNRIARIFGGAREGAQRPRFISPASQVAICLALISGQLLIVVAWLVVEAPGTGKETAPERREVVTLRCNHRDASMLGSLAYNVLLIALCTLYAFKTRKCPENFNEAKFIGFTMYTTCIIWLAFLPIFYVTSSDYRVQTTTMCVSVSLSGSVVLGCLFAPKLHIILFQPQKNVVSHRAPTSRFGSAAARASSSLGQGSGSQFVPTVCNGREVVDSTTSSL

This experiment has as its target T1, recombinant human mGluR2 (Homo sapiens, UniProt Q14416).
T1 construct: expressed in transfected cells
Nature of the experiment: FLIPR Ca2+ mobilization assay, potentiation of glutamate (EC20) response. To be noted: CHO dhfr- cells expressing human mGluR2 and Gα16; potentiation with EC20 glutamate (900 nM); read-out: Representative FLIPR EC50 Values. The experiment is classed as cell-based. Here is the method: Potencies are determined as follows. The compounds of the present invention may be tested in a fluorescence laser imaging plate reader (FLIPR) based assay. This assay is a common functional assay to monitor Ca^2+ mobilization in whole cells expressing recombinant receptor coupled with a promiscuous G-protein. CHO dhfr− cells stably expressing recombinant human mGluR2 and Gα16 loaded with Fluo-4 AM (Invitrogen, Carlsbad Calif.) are treated with varying concentrations of compounds and the Ca^2+ response is monitored on a FLIPR384 (Molecular Devices, Sunnydale Calif.) for agonist activity. The potentiation response is monitored after a subsequent addition of an EC20 concentration of glutamate (900 nM). The maximum calcium response at each concentration of compound for agonism or potentiation are plotted as dose responses curves fitted with a four parameters logistic equation giving EC50 and Hill coefficient using the iterative non linear curve fitting software program.
Consider `OC1(c2cccnc2Oc2ccc3c(nnn3CC3CC3)c2Cl)CCC(C(F)(F)F)CC1` (centres unmarked) [Example 411, 1-(2-{[4-chloro-1-(cyclopropylmethyl)-1H-benzotriazol-5-yl]oxy}pyridin-3-yl)-4-(trifluoromethyl) cyclohexanol], for which the EC50 worked out at 257 nM.

Take `FC(F)(F)CNCc1cccnc1Oc1ccc2c(nnn2CC2CC2)c1Br` [Example 213, N-[(2-{[4-bromo-1-(cyclopropylmethyl)-1H-benzotriazol-5-yl]oxy}pyridin-3-yl)methyl]-2,2,2-trifluoroethanamine]: the EC50 came out at 40 nM.

For `CCC(O)c1cccnc1Oc1ccc2c(nnn2CC(C)(C)C)c1Br` (centres unmarked) [Example 184, 1-(2-{[4-bromo-1-(2,2-dimethylpropyl)-1H-benzotriazol-5-yl]oxy}pyridin-3-yl)propan-1-ol], the EC50 amounted to 21 nM.

Consider `CC(C)(C)Cn1nnc2c(Br)c(Oc3ccncc3)ccc21` [compound 423, 4-bromo-1-(2,2-dimethylpropyl)-5-pyridin-4-yloxy-1H-benzotriazole], for which the EC50 was 141 nM.

As for `CC(C)(C)C(O)c1cccnc1Oc1ccc2c(nnn2CC2CC2)c1Br` (centres unmarked) [Example 91, 1-(2-{[4-bromo-1-(cyclopropylmethyl)-1H-benzotriazol-5-yl]oxy}pyridin-3-yl)-2,2-dimethylpropan-1-ol], the EC50 came out at 6 nM.

In the case of `CC(C)(C)OC(=O)N1C[C@@H]2C[C@H]1CN2Cc1cc(Cl)cnc1Oc1ccc2c(nnn2CC2CC2)c1Br` [Example 297, tert-butyl(1S,4S)-5-[(2-{[4-bromo-1-(cyclopropylmethyl)-1H-benzotriazol-5-yl]oxy}-5-chloropyridin-3-yl)methyl]-2,5-diazabicyclo[2.2.1] heptane-2-carboxylate], the EC50 worked out at 19 nM.

Take `CC(=O)N1CCCN(Cc2cc(F)cnc2Oc2ccc3c(nnn3CC3CC3)c2Br)CC1` [Example 253, 5-({3-[(4-acetyl-1,4-diazepan-1-yl)methyl]-5-fluoropyridin-2-yl}oxy)-4-bromo-1-(cyclopropylmethyl)-1H-benzotriazole]: the EC50 amounted to 52 nM.

Turning to `FCC1CCN(Cc2cccnc2Oc2ccc3c(nnn3CC3CC3)c2Br)C1` (centres unmarked) [Example 215, 4-bromo-1-(cyclopropylmethyl)-5-[(3-{[3-(fluoromethyl)pyrrolidin-1-yl]methyl}pyridin-2-yl)oxy]-1H-benzotriazole], the EC50 was 129 nM.

Consider `OCC(O)c1cccnc1Oc1ccc2c(nnn2CC2CC2)c1Br` (centres unmarked) [Example 52, 1-(2-{[4-bromo-1-(cyclopropylmethyl)-1H-benzotriazol-5-yl]oxy}pyridin-3-yl)ethane-1,2-diol], for which the EC50 turned out to be 814 nM.

With `CS(=O)(=O)N1CCN(Cc2cc(Cl)cnc2Oc2ccc3c(nnn3CC3CC3)c2Br)CC1` [Example 198, 4-bromo-5-[(5-chloro-3-{[4-(methylsulfonyl)piperazin-1-yl]methyl}pyridin-2-yl)oxy]-1-(cyclopropylmethyl)-1H-benzotriazole], the EC50 was determined as 3 nM.

`COCC(OC)c1cccnc1Oc1ccc2c(nnn2CC2CC2)c1Br` (centres unmarked) [Example 55, 4-bromo-1-(cyclopropylmethyl)-5-{[3-(1,2-dimethoxyethyl)pyridin-2-yl]oxy}-1H-benzotriazole]: the EC50 was 95 nM.

Regarding `CC(C)(C)Cn1nnc2c(Br)c(Oc3ncccc3C(F)(F)F)ccc21` [Example 111, 4-bromo-1-(2,2-dimethylpropyl)-5-{[3-(trifluoromethyl)pyridin-2-yl]oxy}-1H-benzotriazole], the EC50 came out at 64 nM.

For `CC(O)c1ncccc1Oc1ccc2c(nnn2CC(C)(C)C)c1Br` (centres unmarked) [Example 151, 1-(3-{[4-bromo-1-(2,2-dimethylpropyl)-1H-benzotriazol-5-yl]oxy}pyridin-2-yl)ethanol], the EC50 amounted to 122 nM.

With `CS(=O)(=O)N1CCCN(Cc2cc(Cl)cnc2Oc2ccc3c(nnn3CC3CC3)c2Br)CC1` [Example 280, 4-bromo-5-[(5-chloro-3-{[4-(methylsulfonyl)-1,4-diazepan-1-yl]methyl}pyridin-2-yl)oxy]-1-(cyclopropylmethyl)-1H-benzotriazole], the concentration giving a half-maximal response (EC50) stood at 8 nM.

`Cc1cccnc1Oc1ccc2c(nnn2CC(C)(C)C)c1Br` [Example 122, 4-bromo-1-(2,2-dimethylpropyl)-5-[(3-methylpyridin-2-yl)oxy]-1H-benzotriazole]: the EC50 came to 80 nM.

For the compound `OCC1C2CN(Cc3cc(Cl)cnc3Oc3ccc4c(nnn4CC4CC4)c3Br)CC12` (centres unmarked) [Example 357, {3-[(2-{[4-bromo-1-(cyclopropylmethyl)-1H-benzotriazol-5-yl]oxy}-5-chloropyridin-3-yl)methyl]-3-azabicyclo[3.1.0]hex-6-yl}methanol], the concentration giving a half-maximal response (EC50) was 13 nM.

With `O=C(NCc1cc(F)cnc1Oc1ccc2c(nnn2CC2CC2)c1Br)c1ccon1` [Example 284, N-[(2-{[4-bromo-1-(cyclopropylmethyl)-1H-benzotriazol-5-yl]oxy}-5-fluoropyridin-3-yl)methyl]isoxazole-3-carboxamide], the EC50 is 64 nM.

`Cn1cc(-c2cnc(Oc3ccc4c(nnn4CC(C)(C)C)c3Br)c(C#N)c2)cn1` [Example 169, 2-{[4-bromo-1-(2,2-dimethylpropyl)-1H-benzotriazol-5-yl]oxy}-5-(1-methyl-1H-pyrazol-4-yl)pyridine-3-carbonitrile]: the EC50 was 425 nM.

`OC(c1cccnc1Oc1ccc2c(nnn2CC2CC2)c1C(F)(F)F)C1CC1` (centres unmarked) [Example 421, cyclopropyl(2-{[1-(cyclopropylmethyl)-4-(trifluoromethyl)-1H-benzotriazol-5-yl]oxy}pyridin-3-yl)methanol]: the EC50 is 20 nM.

On to `OC(CF)(CF)c1cccnc1Oc1ccc2c(nnn2CC2CC2)c1Cl` [Example 398, 2-(2-{[4-chloro-1-(cyclopropylmethyl)-1H-benzotriazol-5-yl]oxy}pyridin-3-yl)-1,3-difluoropropan-2-ol], for which the EC50 stood at 556 nM.

As for `CC(C)(C)Cn1nnc2c(Br)c(Oc3cccc(Br)n3)ccc21` [Example 148, 4-bromo-5-[(6-bromopyridin-2-yl)oxy]-1-(2,2-dimethylpropyl)-1H-benzotriazole], the EC50 came out at 23 nM.

Consider `Clc1cnc(Oc2ccc3c(nnn3CC3CC3)c2Br)c(CN2CCN(c3nccs3)CC2)c1` [Example 320, 4-bromo-5-[(5-chloro-3-{[4-(1,3-thiazol-2-yl)piperazin-1-yl]methyl}pyridin-2-yl)oxy]-1-(cyclopropylmethyl)-1H-benzotriazole], for which the EC50 is 5 nM.

For the compound `CC(C)(O)c1cccnc1Oc1ccc2c(nnn2CC2CC2)c1Cl` [Example 396, 2-(2-{[4-chloro-1-(cyclopropylmethyl)-1H-benzotriazol-5-yl]oxy}pyridin-3-yl)propan-2-ol], the EC50 was found to be 556 nM.

Regarding `CC1(O)CCN(Cc2cccnc2Oc2ccc3c(nnn3CC3CC3)c2Br)CC1` [Example 227, 1-[(2-{[4-bromo-1-(cyclopropylmethyl)-1H-benzotriazol-5-yl]oxy}pyridin-3-yl)methyl]-4-methylpiperidin-4-ol], the EC50 is 705 nM.

Take `FC1(F)CCN(Cc2cccnc2Oc2ccc3c(nnn3CC3CC3)c2Br)CC1` [Example 194, 4-Bromo-1-(cyclopropylmethyl)-5-({3-[(4,4-difluoropiperidin-1-yl)methyl]pyridin-2-yl}oxy)-1H-benzotriazole]: the concentration for a half-maximal effect (EC50) was found to be 32 nM.

Turning to `FC1(F)CCCN(Cc2cccnc2Oc2ccc3c(nnn3CC3CC3)c2Br)C1` [Example 204, 4-bromo-1-(cyclopropylmethyl)-5-({3-[(3,3-difluoropiperidin-1-yl)methyl]pyridin-2-yl}oxy)-1H-benzotriazole], the EC50 was determined as 39 nM.

In the case of `OC(c1cccnc1Oc1ccc2c(nnn2CC2CC2)c1Br)C1CC1` (centres unmarked) [Example 93, (2-{[4-bromo-1-(cyclopropylmethyl)-1H-benzotriazol-5-yl]oxy}pyridin-3-yl)(cyclopropyl)methanol], the EC50 stood at 11 nM.

As to `CC(C)(C)C(O)c1cccnc1Oc1ccc2c(nnn2CC2CC2)c1Br` (centres unmarked) [Example 72, 1-(2-{[4-bromo-1-(cyclopropylmethyl)-1H-benzotriazol-5-yl]oxy}pyridin-3-yl)-2,2-dimethylpropan-1-ol], the EC50 came out at 5 nM.

Regarding `CC1CN(Cc2cc(F)cnc2Oc2ccc3c(nnn3CC3CC3)c2Br)CCN1S(C)(=O)=O` (stereo in doubt) [Example 290, 4-bromo-1-(cyclopropylmethyl)-5-[(5-fluoro-3-{[(3R)-3-methyl-4-(methylsulfonyl)piperazin-1-yl]methyl}pyridin-2-yl)oxy]-1H-benzotriazole], the EC50 is 2 nM.

`CS(=O)(=O)NC1CCN(Cc2cc(Cl)cnc2Oc2ccc3c(nnn3CC3CC3)c2Br)CC1` [Example 365, N-{1-[(2-{[4-bromo-1-(cyclopropylmethyl)-1H-benzotriazol-5-yl]oxy}-5-chloropyridin-3-yl)methyl]piperidin-4-yl}methanesulfonamide]: the concentration giving a half-maximal response (EC50) is 8 nM.

Turning to `Clc1cnc(Oc2ccc3c(nnn3CC3CC3)c2Br)c(CN2CC(n3cccn3)C2)c1` [Example 384, 4-bromo-5-[(5-chloro-3-{[3-(1H-pyrazol-1-yl)azetidin-1-yl]methyl}pyridin-2-yl)oxy]-1-(cyclopropylmethyl)-1H-benzotriazole], the EC50 came to 8 nM.

Consider `CC(O)c1cccnc1Oc1ccc2c(nnn2CC2CC2)c1C(F)(F)F` (racemic) [Example 418, (±)-1-(2-{[1-(cyclopropylmethyl)-4-(trifluoromethyl)-1H-benzotriazol-5-yl]oxy}pyridin-3-yl)ethanol], for which the EC50 was determined as 49 nM.
